Measured values as given in patent US10183915B2, “Axially chiral isomers, and preparation methods therefor and pharmaceutical uses thereof” (MEDSHINE DISCOVERY INC., priority 2015, dated 2019).
Read-outs that look alike come from different tables or passages of the source.

Assays:
[1] = Stability of compounds in ethanol solutions (heated; SFC chiral purity); format: physicochemical; settings: for Enantiomer Excess of Compound: ethanol solution
Description: Test 3: Evaluation of the Stability of Compounds in Ethanol Solutions.
(§1) An appropriate amount of test compound was accurately weighed, added into ethanol to obtain an ethanol solution. The ethanol solution of the compound was stirred in a heated oil bath. At the end of the test, the purity and chiral purity of the compound was detected by high performance liquid chromatography (HPLC) or LC-MS (LCMS) and supercritical fluid chromatography (SFC).

[2] = Stability of compounds in SD rat plasma; format: in vitro ADME
Method: (§2) Test 5: Evaluation of the Stability of Compounds in Rat Plasma and Human Plasma
(§3) 2. Experimental Procedures and Methods • 2.1 Prior to the experiment, the frozen plasma stored at −40° C. was thawed at room temperature and incubated in a 37° C. water bath for 5-10 min; centrifuged at 4000 rpm for 5 min, to remove impurities and lipids in the plasma. Measured the value of pH, if required, adjusted it to 7.4±0.1. • 2.2 Prepared 400 μM intermediate solution by diluting 4 μL of the working solution (10 mM) with 96 μL DMSO. • 2.3 Preparation of incubation samples: Remove 3 μL of intermediate solution (400 μM) to mix with 597 μL of blank plasma to achieve 2 μM of final concentration. Incubate each time point samples (0 min, 10 min, 30 min, 60 min, 120 min, in duplicate) at 37° C. in water bath. • 2.4 An aliquot of 100 μL samples of the final spiked plasma for each time point were removed to sample collected plates, added 400 μL of stop solution (200 ng/mL Tolbutamide plus 20 ng/mL Buspirone in 50% ACN/MeOH) to precipitate protein. Mixed thoroughly. • 2.5 Centrifuged each plate at 4,000 rpm for 20 min. Transfered an aliquot of supernatant (100 μL) from each well to sample plate and mixed with 200 μL ultra pure water. Shaked the plate at 800 rpm for about 10 min before submitting to LC-MS/MS analysis. 3. Experimental Data Analysis
(§4) The ratio of the peak area to the internal standard peak area was used to assess the decrease of the test compound to be measured. The % remaining of the test compound after incubation in plasma was calculated using following equation: % Remaining=100×(PAR at appointed incubation time/PAR at T0 time)
(§5) wherein PAR is the peak area ratio of analyte versus internal standard (IS)
(§6) The appointed incubation time points are: 0 min, 10 min, 30 min, 60 min, 120 min; T0: Samples prior to incubation.

[3] = In vivo pharmacokinetic study in male Sprague-Dawley rats (IV and PO); parameters: species or system Sprague-Dawley rat; settings: for Bioavailability: PO 10 mpk vs IV 2 mpk; for MRT inf: read-out: MRT0-inf
Method: Test 6: In Vivo Pharmacokinetic Study of the Test Compounds in Rats
To study the pharmacokinetic behavior of the compounds in rats and to evaluate their pharmacokinetic characteristics, their concentrations in plasma were determined by LC/MS/MS.
Appropriate amount of sample was added to a certain amount of pure water, the pH were adjusted to 7-8, to prepare to be 1 mg/mL (filtered and clarified) and 2 mg/mL (with a few particles of suspension) for IV and PO administration. • 2.4 Administration • 18 male SD rats were randomly assigned to 6 treatment groups, 3 rats in each group. Male rats were administrated IV and PO respectively after fasting overnight. The IV dosage was 2 mg/kg, the dose volume was 2 mL/kg, the PO dosage was 10 mg/kg, and the dose volume was 5 mL/kg. 3. Experimental Procedure
For IV group, 250 μL blood samples were collected before administration, and 0.083, 0.25, 0.5, 1, 2, 4, 8, 24 hours after administration, and placed in K2-EDTA anticoagulant tube, centrifuged at 3000 rpm for 15 minutes, plasma was separated, stored at −80° C. For PO Group, blood samples were collected before administration, and 0.25, 0.5, 1, 2, 4, 8, 24 hours after administration, and the other operations were the same as group IV. The content of the test compounds in the plasma of rats after administration of IV and PO were determined by LC/MS/MS method. The linear range of the assay was 6.00-18000 nM, and the lower limit of quantification was 6 nM; the plasma samples were analyzed by pretreatment with precipitated proteins.

[4] = Stability of solid compounds in ambient temperature (15° C., nitrogen cabinet, dark; SFC chiral purity); format: physicochemical; settings: for Enantiomer Excess of the Compound: solid
Method: Test 2: Evaluation of the Stability of Solid Compounds in Ambient Temperature.
20 mg of test compound was placed into 5 mL brown transparent sealed container with stopper and stoned in the nitrogen cabinet (15° C.) in the dark. After the preset storage time, about 2 mg of test compound was accurately weighed, added into ethanol to prepare 1 mg/mL ethanol solution. The purity and chiral purity of the compound was detected by high performance liquid chromatography (HPLC) or LC-MS (LCMS) and supercritical fluid chromatography (SFC).

[5] = Stability of compounds in DMSO solutions (heated; SFC chiral purity); format: physicochemical; settings: for Enantiomer Excess of Compound: DMSO solution
Method: Example 4: Evaluation of the Stability of Compounds in DMSO Solutions
as §1, with “DMSO” for “ethanol”, “a DMSO” for “an ethanol”, “test, a sample amount of the DMSO solution was diluted with ethanol and” for “test,”

[6] = Stability of compounds in human plasma; format: in vitro ADME; settings: for Recovery (% remaining): human plasma
Method: as §2, §3, §4, §5, §6

[7] = male SD rats, IV 2 mpk, 2 mg/kg
[8] = male SD rats, PO 10 mpk, 10 mg/kg
[9] = male, Sprague-Dawley, rat, plasma, iv, 2 mg/kg, male SD rats, IV 2 mpk
[10] = male, Sprague-Dawley, rat, plasma, po, 10 mg/kg, male SD rats, PO 10 mpk

For O=C(O)CSc1nnc(Br)n1-c1ccc(C2CC2)c2ccccc12 (single isomer, unassigned) [(−)-Lesinurad], the “Enantiomer Excess of Compound” value ([1]; 37° C., 4 days) was “Unchanged”, the “Enantiomer Excess of Compound” value ([1]; 37° C., 7 days) was “Unchanged” and the “Enantiomer Excess of Compound” value ([1]; heating time 0 day) was 96.5%. For the same molecule, the “Stability in ethanol solutions (SFC purity)” value ([1]; heating to 37° C. and up to 70° C.) was “very stable”, the “Stability after co-incubation with SD-rat plasma” value ([2]; 2 hours) was “very stable” and the recovery at 0 min, 2 μM ([2]; SD, rat, plasma, pH 7.4, SD rat plasma, 2 μM, 37° C., 0 min, read-out: Recovery (% remaining)) was 100%. The recovery at 10 min, 2 μM ([2]; SD, rat, plasma, pH 7.4, SD rat plasma, 2 μM, 37° C., 10 min, read-out: Recovery (% remaining)) was 102%, the recovery at 30 min, 2 μM ([2]; SD, rat, plasma, pH 7.4, SD rat plasma, 2 μM, 37° C., 30 min, read-out: Recovery (% remaining)) was 99.9% and the recovery at 60 min, 2 μM ([2]; SD, rat, plasma, pH 7.4, SD rat plasma, 2 μM, 37° C., 60 min, read-out: Recovery (% remaining)) was 97.9%. The recovery at 120 min, 2 μM ([2]; SD, rat, plasma, pH 7.4, SD rat plasma, 2 μM, 37° C., 120 min, read-out: Recovery (% remaining)) was 100%, the “Transformation of the atropisomer in vivo” value ([3]; SD rats, IV and PO) was “no transformation was observed” and the AUC0-inf [3, 7] was 14.419 ± 1.54695 µM·h. It also gave a C0 [3, 7] of 9.39 ± 3.21 µM, a Cl [3, 7] of 5.76 ± 0.59 mL/min/kg and an MRT0-inf [3, 7] of 2.16 ± 0.07 h. It also gave a T1/2 [3, 7] of 1.46 ± 0.03 h, a Vdss [3, 7] of 0.75 ± 0.10 L/kg and a Bioavailability ([3]; male SD rats) of 65.11%. The AUC0-inf [3, 8] was 46.94391 ± 11.4987 µM·h, the Cmax [3, 8] was 11 ± 3.99 µM and the MRT0-inf [3, 8] was 3.92 ± 0.64 h. For the same molecule, the T1/2 [3, 8] was 2.17 ± 0.10 h, the Tmax [3, 8] was 2.33 ± 1.53 h and the “Enantiomer Excess of the Compound” value ([4]; storing time 0 day) was 96.5%. For the same molecule, the “Enantiomer Excess of the Compound” value ([4]; storing time >80 days) was “Unchanged”, the “Stability of the solid powder (SFC purity)” value ([4]; storing over 80 days) was “very stable” and the “Enantiomer Excess of Compound” value ([5]; 80° C., 0 h) was 96.5%. For the same molecule, the “Enantiomer Excess of Compound” value ([5]; 80° C., 2 × 24 h) was “Unchanged”, the “Enantiomer Excess of Compound” value ([5]; 80° C., 4 × 24 h) was “Unchanged” and the “Enantiomer Excess of Compound” value ([5]; 80° C., 2 h) was “Unchanged”. The “Enantiomer Excess of Compound” value ([5]; 80° C., 4 h) was “Unchanged”, the “Enantiomer Excess of Compound” value ([5]; 80° C., 8 h) was “Unchanged” and the “Enantiomer Excess of Compound” value ([5]; 80° C., 24 h) was “Unchanged”. The “Enantiomer Excess of Compound” value ([5]; 120° C., 0 h) was 96.5%, the “Enantiomer Excess of Compound” value ([5]; 120° C., 2 × 24 h) was “Unchanged” and the “Enantiomer Excess of Compound” value ([5]; 120° C., 4 × 24 h) was “Unchanged”. For the same molecule, the “Enantiomer Excess of Compound” value ([5]; 120° C., 2 h) was “Unchanged”, the “Enantiomer Excess of Compound” value ([5]; 120° C., 4 h) was “Unchanged” and the “Enantiomer Excess of Compound” value ([5]; 120° C., 8 h) was “Unchanged”. The “Enantiomer Excess of Compound” value ([5]; 120° C., 24 h) was “Unchanged”, the “Enantiomer Excess of Compound” value ([5]; 160° C., 0 h) was 96.5% and the “Enantiomer Excess of Compound” value ([5]; 160° C., 8 h) was “Unchanged”. The “Stability in DMSO solutions (SFC purity)” value ([5]; heating to 80° C., 120° C. and up to 160° C.) was “very stable”, the “Stability after co-incubation with human plasma” value ([6]; 2 hours) was “very stable” and the “Recovery (% remaining)” value ([6]; 2 μM, 37° C., 30 min) was 100.4%. The “Recovery (% remaining)” value ([6]; 2 μM, 37° C., 60 min) was 99.6% and the recovery at 120 min, 2 μM ([6]; human, plasma, pH 7.4, human plasma, 2 μM, 37° C., 120 min, read-out: Recovery (% remaining)) was 101%.

O=C(O)CSc1nnc(Br)n1-c1ccc(C2CC2)c2ccccc12 (racemic) [(±)-Lesinurad, Lesinurad, reference compound] gave a clearance ([3]; Sprague-Dawley, rat, plasma, 2 mg/kg, male SD rats, IV 2 mpk) of 5.72 ± 1.09 mL/min/kg, an AUC0-inf ([3]; Sprague-Dawley, rat, plasma, 2 mg/kg, male SD rats, IV 2 mpk, read-out: AUC0-inf) of 14.8 ± 3.15 µM·h and an AUC0-inf ([3]; Sprague-Dawley, rat, plasma, 10 mg/kg, male SD rats, PO 10 mpk, read-out: AUC0-inf) of 62.5 ± 12.1 µM·h. The C0 [3, 9] was 11.6 ± 1.98 µM, the half-life [3, 9] was 1.8 ± 0.65 h and the MRT inf [3, 9] was 2.21 ± 0.63 h. For the same molecule, the Vd ([3]; male, Sprague-Dawley, rat, plasma, iv, 2 mg/kg, male SD rats, IV 2 mpk, read-out: Vdss) was 0.76 ± 0.29 L/kg, the Cmax [3, 10] was 14.5 ± 8.47 µM and the half-life [3, 10] was 2.46 ± 0.18 h. For the same molecule, the Bioavailability ([3]; male, Sprague-Dawley, rat, plasma, po, 10 mg/kg, male SD rats, read-out: Bioavailability) was 84.3%, the MRT inf [3, 10] was 4.63 ± 1.16 h and the Tmax ([3]; male, Sprague-Dawley, rat, plasma, po, 10 mg/kg, male SD rats, PO 10 mpk, read-out: Tmax) was 2.33 ± 1.53 h.
